Converted amounts (≈) assume the structure as drawn. “Also recorded” adds a separate entry of the source. Like-named read-outs stand apart in the source and are kept apart here. Marks after values point to notes of the source that are not given here.
Assays:
[1] = 100 ng/mL
Procedure: Plasma was spiked with the compound in order to obtain a final drug concentration of 100 ng/mL (expressed as non-salified compound). The spiked plasma (dedicated to C1h and C4h) was then incubated at 37° C. for 1 h and 4 h. Plasma samples were analyzed by LC-MS/MS following protein precipitation. The limit of quantification for compounds was 10 ng/mL.
10 μL of the sample was injected to Luna Phenomenex C8 (50 mm×2.0 mm, 3 μm). Solvent A: ammonium acetate (0.15 g)/formic acid (2 mL)/HPLC water up to 1000 mL. Solvent B: ammonium acetate (0.15 g)/formic acid (2 mL)/Methanol (200 mL)/Acetonitrile up to 1000 mL, flow rate of 0.3 mL/min, t=0-6 min. gradient of 10-90% of B. Retention time for SB-P17G-C2 was 1.85 min and for SB-P17G-A20 was 3.3 min. MS/MS condition used for detection: Finnigan TSQ Quantum disco instrument, Excalibur version 2.0 acquisition system, ESI positive ion ionization mode. The mean percent of difference between C1h or C4h and C0 concentrations was calculated. M % D (%)=100×[(C1h or C4h)−C0]/C0
The compounds were considered as stable if the mean percent of difference between C4h and C0 concentrations was less than 20%.

M. tuberculosis H37Rv [2] = test: Growth inhibition / time dose curves (OD600 and CFU); type: cell-based, Mycobacterium tuberculosis; settings: for reduction in number of viable bacteria: 1×MIC
M. tuberculosis H37Rv [3] = test: MIC / dose response by modified microplate Alamar Blue assay (MABA); type: cell-based, Mycobacterium tuberculosis
M. tuberculosis W210 = test: microbe, parasite or virus in culture; type: cell-based, Mycobacterium tuberculosis; settings: Mycobacterium tuberculosis
[4] = system: Mycobacteria tuberculosis; test: MIC and drug response curve type (Tables A and B); type: cell-based, Mycobacterium tuberculosis; settings: Table A
Procedure: A drug concentration response curve can be generated by graphing the log10 drug concentrations (μg/mL) against the difference in growth between the drug-treated wells and control wells. See FIG. 3C, and FIG. 5 (entries for SB-P23D8 and SB-P26D9). A NREBA is indicative of bacteriostatic activity above the MIC.
(§1) Further analysis using the methods described herein was performed on the compounds found in Tables A and B (bold font compounds are shown in FIG. 11) resulting in the data found therein.
MIC values were determined for the benzimidazoles using a modified 96-well microplate Alamar Blue (resazurin) assay (MABA) (see Kumar et al., J. Med. Chem. 2011; 54:374-381; Collins and Franzblau, Antimicrob. Agents Chemother. 1997; 41:1004-1009). Dose response curves were generated from the MABA assay for compounds by graphing the log10 drug concentrations against the difference in growth between the drug-treated wells and control wells using GraphPad Prism Version 5.0d for Mac OS X (GraphPad Software, San Diego Calif., USA, www.graphpad.com). For time dose studies, bacterial growth in the presence of compound was monitored by the O.D. 600 nm. […] The values were plotted against time using GraphPad Prism Version 5.0d for Mac OS X (GraphPad Software, San Diego Calif., USA, www.graphpad.com).

Vero cells = test: Cytotoxicity assay (resazurin, 72 h); type: cell-based; settings: at 200 μg/mL
Procedure: (§2) The cytotoxicity assay was performed as described previously^16. Briefly compounds were serially diluted in 96 well plates.

[5] = Cytotoxicity assay (resazurin, 72 h); type: cell-based; settings: African green monkey, Vero cells; 72 h
Procedure: as §2

M. tuberculosis NHN382 = test: microbe, parasite or virus in culture; type: cell-based, Mycobacterium tuberculosis; settings: Mycobacterium tuberculosis
M. tuberculosis Erdman = type: in vivo; settings: for Δ Lungs (difference between means of Test and Control Groups) / Δ Spleen (difference between means of Test and Control Groups) / Log10CFU Lungs / Log10CFU Spleen: 50 mg/kg b.i.d. (Inh q.d.); for Log10CFU Lungs / Log10CFU Spleen: day 15
[6] = system: M. tuberculosis clinical isolates; test: microbe, parasite or virus in culture; type: cell-based, Mycobacterium tuberculosis; settings: Mycobacterium tuberculosis, read-out: minimal inhibitory concentrations
M. tuberculosis NHN20 = test: microbe, parasite or virus in culture; type: cell-based, Mycobacterium tuberculosis; settings: Mycobacterium tuberculosis
[7] = Oxidative metabolic lability in mouse liver microsomes; settings: 5 μM, 1 mg/mL microsomal protein, 20 min
Procedure: (§3) Microsomal fractions were prepared in the Drug Disposition Domain at DSAR Montpellier (371 rue du Pr. J. Blayac, 34184 Montpellier Cedex 04, France). […] The flavin-containing monooxygenases (FMO)-dependent reactions were run in the presence of bovine serum albumin (BSA, 0.1%) for the duration of 0 and 20 min (with or without microsomal proteins and/or cofactors). […] Following protein precipitation with acetonitrile and their removal by centrifugation, supernatant fluids were analyzed by LC/MS-MS.
(§4) Thermo Finnigan TSQ Quantum Ultra instrument, ESI positive ion ionization mode. Each compound is studied in duplicates. Results are expressed in percentage of lability (or total metabolism). Total metabolism=[1−(UC_Peak Area+Cofactor at T20)/(UC_Peak Area Reference at T0)]×100
(§5) The reactions were prepared as described and were run in the presence of bovine scrum albumin (BSA, 0.1%) for the duration of 0 and 20 min (with or without microsomal proteins and/or cofactors). Enzyme activity was stopped, the protein was precipitated and removed by centrifugation. The supernatant fluids were analyzed by LC/MS-MS. […] A Thermo Finnigan TSQ Quantum Ultra instrument, ESI positive ion ionization mode was used for MS/MS. Each compound was studied in duplicates. Results are expressed in percentage of lability (or total metabolism) using the following formula: Total metabolism=[1−(UC_Peak Area+Cofactor at T20)/(UC_Peak Area Reference at T0)]×100 where UC=Unchanged Compound; “Reference” sample was NADPH for liver microsomal preparation.

M. tuberculosis = test: Benzimidazoles activity tested in animals (animal models of infection, Table A); type: in vivo, mouse; settings: Table A
Procedure: as §1
Compound efficacy was assessed in two murine models of infection based on the short term model described previously (Lenaerts et al., Antimicrob. Agents Chemother. 2003; 47:783-785). All aerosol infections were performed using a Middlebrook aerosol generation devise (Glas-Col, Terre Haute, Ind.).

[8] = Oxidative metabolic lability in human liver microsomes; settings: 5 μM, 1 mg/mL microsomal protein, 20 min
Procedure: as §3, §4, §5

M. tuberculosis TN587 = test: microbe, parasite or virus in culture; type: cell-based, Mycobacterium tuberculosis; settings: Mycobacterium tuberculosis

CN(C)c1cc2[nH]c(C3CCCCC3)nc2cc1NC(=O)c1ccc(OC(F)(F)F)cc1F [SB-P17G-A38]
Plasma Stability (% hydrolysis) Mouse (4 h) [1]: −11.5% | reduction in number of viable bacteria (M. tuberculosis H37Rv [2]; day 2): 2.8 Log10 CFU | reduction in number of viable bacteria (M. tuberculosis H37Rv [2]; day 6): 2.9 Log10 CFU | reduction in bacterial viability (M. tuberculosis H37Rv [2]; 3-6×MIC): 3.6-4.4 Log10 CFU | MIC (M. tuberculosis H37Rv [3]; H37Rv): 0.31 ± 0.22 µg/mL (≈ 0.667 µM) | MIC (M. tuberculosis H37Rv [3]; Mycobacterium tuberculosis, H37RV): 0.31 ± 0.22 µg/mL (≈ 0.667 µM) | MIC (M. tuberculosis W210): 0.47 ± 0.22 µg/mL (≈ 1.01 µM) | Curve ([4]; drug response curve type): Sigmoid | MIC ([4]; in µg/mL): .156 | cytotoxicity in Vero cells (Vero cells): not cytotoxic; also recorded: non-toxic | IC50 at 72 h [5]: > 200 µg/mL | MIC (M. tuberculosis NHN382): 0.31 µg/mL (≈ 0.667 µM) | reduction of bacterial load in the lungs (M. tuberculosis Erdman; 50 mg/kg b.i.d. via either IP or PO): 6.1-6.3 Log10 CFU | Δ Lungs (difference between means of Test and Control Groups) (M. tuberculosis Erdman; IP): −6.30*** Log10 CFU | Δ Spleen (difference between means of Test and Control Groups) (M. tuberculosis Erdman; IP): −4.96*** Log10 CFU | Log10CFU Lungs (M. tuberculosis Erdman; IP): 0.39 ± 0.63 Log10 CFU | Log10CFU Spleen (M. tuberculosis Erdman; IP): 0 ± 0 Log10 CFU | Δ Lungs (difference between means of Test and Control Groups) (M. tuberculosis Erdman; PO): −6.10*** Log10 CFU | Δ Spleen (difference between means of Test and Control Groups) (M. tuberculosis Erdman; PO): −3.89*** Log10 CFU | Log10CFU Lungs (M. tuberculosis Erdman; PO): 0.22 ± 0.34 Log10 CFU | Log10CFU Spleen (M. tuberculosis Erdman; PO): 0 ± 0 Log10 CFU | reduction of bacterial load in the lungs (M. tuberculosis Erdman; delivered IP, 50 mg/kg b.i.d.): 6.3 Log10 CFU | reduction of bacterial load in the lungs (M. tuberculosis Erdman; delivered PO, 50 mg/kg b.i.d.): 6.1 Log10 CFU | MIC [6]: 0.16 to 0.47 µg/mL (≈ 0.344 to 1.01 µM) | MIC (M. tuberculosis NHN20): 0.24 ± 0.11 µg/mL (≈ 0.517 µM) | Liver Microsome Lability Mouse [7]: 4% | Efficacy Lung (M. tuberculosis): Yes | Efficacy Spleen (M. tuberculosis): Yes | Liver Microsome Lability Human [8]: 13% | MIC (M. tuberculosis TN587): 0.31 µg/mL (≈ 0.667 µM)
